From publication PMC8213057, “Targeting ALK2: An Open Science Approach to Developing Therapeutics for the Treatment of Diffuse Intrinsic Pontine Glioma” (Journal of Medicinal Chemistry, 2020)

Legend:
FYN = FYN (Homo sapiens, UniProt P06241); test: biochemical; details: read-out: % enzyme activity, 1 μM; Run 1, Run 2
IKKa/CHUK = target: T1, IKKa/CHUK (Homo sapiens, UniProt O15111); details: 1 μM; Run 1, Run 2
T1 sequence (O15111 1-745): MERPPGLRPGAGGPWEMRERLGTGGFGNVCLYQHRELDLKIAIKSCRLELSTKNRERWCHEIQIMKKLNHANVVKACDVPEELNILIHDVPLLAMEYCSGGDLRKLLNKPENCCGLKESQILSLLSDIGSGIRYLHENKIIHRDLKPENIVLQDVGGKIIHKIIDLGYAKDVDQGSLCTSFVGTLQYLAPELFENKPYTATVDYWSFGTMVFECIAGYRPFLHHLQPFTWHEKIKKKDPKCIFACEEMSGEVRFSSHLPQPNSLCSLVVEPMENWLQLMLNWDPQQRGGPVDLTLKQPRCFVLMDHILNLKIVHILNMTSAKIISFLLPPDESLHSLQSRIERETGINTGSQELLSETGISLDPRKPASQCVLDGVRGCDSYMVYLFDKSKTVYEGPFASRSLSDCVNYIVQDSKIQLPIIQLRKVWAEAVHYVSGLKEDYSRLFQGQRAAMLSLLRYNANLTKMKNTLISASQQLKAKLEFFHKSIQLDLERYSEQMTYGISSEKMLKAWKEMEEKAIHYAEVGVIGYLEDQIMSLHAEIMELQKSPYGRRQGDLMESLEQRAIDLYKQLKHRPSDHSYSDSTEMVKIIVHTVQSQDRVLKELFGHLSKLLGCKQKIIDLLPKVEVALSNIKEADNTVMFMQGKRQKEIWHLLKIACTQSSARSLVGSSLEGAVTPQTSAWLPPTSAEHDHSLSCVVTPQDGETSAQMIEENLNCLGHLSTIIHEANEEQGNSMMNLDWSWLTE

KSR2 = target: T2, KSR2 (Homo sapiens, UniProt Q6VAB6); test: biochemical; details: read-out: % enzyme activity, 1 μM; Run 1, Run 2
T2 sequence (Q6VAB6 1-950): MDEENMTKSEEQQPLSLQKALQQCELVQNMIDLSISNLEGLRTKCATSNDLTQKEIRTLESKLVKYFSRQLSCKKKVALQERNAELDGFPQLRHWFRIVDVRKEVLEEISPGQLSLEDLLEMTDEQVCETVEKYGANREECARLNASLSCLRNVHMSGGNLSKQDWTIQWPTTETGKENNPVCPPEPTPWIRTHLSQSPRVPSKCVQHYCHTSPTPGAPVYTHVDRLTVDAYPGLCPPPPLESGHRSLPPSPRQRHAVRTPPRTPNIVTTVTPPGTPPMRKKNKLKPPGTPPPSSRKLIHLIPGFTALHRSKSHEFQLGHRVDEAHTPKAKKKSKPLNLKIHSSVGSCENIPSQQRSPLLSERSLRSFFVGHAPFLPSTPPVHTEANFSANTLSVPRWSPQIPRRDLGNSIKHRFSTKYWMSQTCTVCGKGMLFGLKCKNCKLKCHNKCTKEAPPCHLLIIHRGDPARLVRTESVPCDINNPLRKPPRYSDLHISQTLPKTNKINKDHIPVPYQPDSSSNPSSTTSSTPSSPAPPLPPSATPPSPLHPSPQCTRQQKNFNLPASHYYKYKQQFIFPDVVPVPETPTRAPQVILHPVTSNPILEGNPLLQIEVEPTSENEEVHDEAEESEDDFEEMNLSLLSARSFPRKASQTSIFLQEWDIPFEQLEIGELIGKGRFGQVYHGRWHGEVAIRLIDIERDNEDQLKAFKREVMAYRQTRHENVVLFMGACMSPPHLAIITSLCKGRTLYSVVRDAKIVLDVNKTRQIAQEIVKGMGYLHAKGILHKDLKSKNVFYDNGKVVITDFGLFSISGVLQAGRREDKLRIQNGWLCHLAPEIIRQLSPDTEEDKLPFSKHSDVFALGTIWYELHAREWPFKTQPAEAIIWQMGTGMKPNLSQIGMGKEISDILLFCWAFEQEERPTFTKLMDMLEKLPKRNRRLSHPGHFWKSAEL

MAK = target: T3, MAK (Homo sapiens, UniProt P20794); test: biochemical; details: read-out: % enzyme activity, 1 μM; Run 1, Run 2
T3 sequence (P20794 1-623): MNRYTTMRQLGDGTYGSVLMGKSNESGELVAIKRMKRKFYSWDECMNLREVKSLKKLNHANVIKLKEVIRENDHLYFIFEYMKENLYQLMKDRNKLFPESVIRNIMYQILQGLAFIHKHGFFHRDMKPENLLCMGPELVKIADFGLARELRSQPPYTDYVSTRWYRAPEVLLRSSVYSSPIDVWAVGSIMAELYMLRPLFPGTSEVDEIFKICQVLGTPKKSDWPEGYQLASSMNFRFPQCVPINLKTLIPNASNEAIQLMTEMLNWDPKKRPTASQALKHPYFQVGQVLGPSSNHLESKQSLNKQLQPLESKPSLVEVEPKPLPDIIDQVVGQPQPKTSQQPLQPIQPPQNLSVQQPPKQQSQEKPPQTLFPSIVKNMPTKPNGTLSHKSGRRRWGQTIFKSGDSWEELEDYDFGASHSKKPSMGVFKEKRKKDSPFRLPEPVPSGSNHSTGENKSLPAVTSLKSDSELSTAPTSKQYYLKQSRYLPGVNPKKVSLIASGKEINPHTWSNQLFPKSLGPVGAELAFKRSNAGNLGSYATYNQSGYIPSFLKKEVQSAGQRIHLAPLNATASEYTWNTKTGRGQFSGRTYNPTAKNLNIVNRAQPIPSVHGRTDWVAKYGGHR

Chain of FYN (P06241 whole entry): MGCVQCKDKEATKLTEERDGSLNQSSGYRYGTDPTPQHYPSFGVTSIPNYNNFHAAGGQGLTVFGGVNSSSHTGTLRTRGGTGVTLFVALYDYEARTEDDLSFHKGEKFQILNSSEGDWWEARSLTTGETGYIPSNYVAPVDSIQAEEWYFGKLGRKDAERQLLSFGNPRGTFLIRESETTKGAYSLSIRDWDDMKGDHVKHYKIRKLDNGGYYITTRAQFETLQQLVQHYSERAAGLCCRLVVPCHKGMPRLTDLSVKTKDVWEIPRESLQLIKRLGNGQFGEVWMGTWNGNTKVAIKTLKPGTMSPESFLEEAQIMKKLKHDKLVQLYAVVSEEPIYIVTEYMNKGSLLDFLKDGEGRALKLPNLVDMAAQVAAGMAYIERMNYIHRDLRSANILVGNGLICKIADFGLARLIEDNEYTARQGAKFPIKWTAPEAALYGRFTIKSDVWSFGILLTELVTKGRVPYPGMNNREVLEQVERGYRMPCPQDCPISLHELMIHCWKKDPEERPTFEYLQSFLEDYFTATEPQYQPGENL

Structure (SMILES)	remaining activity at 1 µM (FYN) [%]	% enzyme activity (IKKa/CHUK) [%]	remaining activity at 1 µM (KSR2) [%]	remaining activity at 1 µM (MAK) [%]
COc1cc(-c2cncc(-c3ccc(N4CCN(C)CC4)cc3)c2C)cc(F)c1C(N)=O [Compound 26a, 2-Fluoro-6-methoxy-4-(4-methyl-5-(4-(4-methylpiperazin-1-yl)phenyl)pyridin-3-yl)benzamide]	99.9	82.74	96.9	99.2
COc1cc(-c2cncc(-c3ccc(N4C[C@@H](C)N(C)[C@@H](C)C4)cc3)c2C)cc(F)c1C(N)=O [Compound 26c, 2-Fluoro-6-methoxy-4-(4-methyl-5-(4-((3R,5S)-3,4,5-trimethylpiperazin-1-yl)phenyl)pyridin-3-yl)benzamide]	97	85.96	98.5	119
